Publication PMC12184311 (2025)

Experiments:
[1] = test system: two-base-bulged 3WJ (DNA, junction) CGGAACGAAGCACTCG/CGAGTGCAGCGTGG/CCACGCTCGTTCCG; test: PAGE
[2] = test system: one-base-bulged 3WJ (DNA, junction) CGGAACGAGCACTCG/CGAGTGCAGCGTGG/CCACGCTCGTTCCG; test: PAGE
[3] = test system: mm3WJ (mismatched 3WJ) (DNA, junction) CGGAACGGCACTCG/CGAGTGCAGCGTGG/CCACGCACGTTCCG; test: PAGE
[4] = test system: 4WJ-22 (DNA, junction) GCCTAGCATGATACTGCTACCG/CGGTAGCAGTACCGTTGGTGGC/GCCACCAACGGCGTCAACTGCC/GGCAGTTGACGTCATGCTAGGC; test: UV melting, 260 nm; conditions: Na+ (10 mM Na cacodylate, 50 mM NaOAc); 1 equivalent Pt-BIMA, 0.05% DMSO; biphasic
[5] = test system: FAM-labelled DS-21 (dsDNA) (DNA, duplex) CCTTCACGCGAACGTAATCCT/AGGATTACGTTCGCGTGAAGG; test: microscale thermophoresis; conditions: Na+ 50 mM (NaOAc); 10 mM HEPES, 0.1% Tween, room temperature; tested 1.5 nM to 50 µM Pt-BIMA
[6] = test system: FAM-labelled 4WJ-22 (FAM-4WJ) (DNA, junction) GCCTAGCATGATACTGCTACCG/CGGTAGCAGTACCGTTGGTGGC/GCCACCAACGGCGTCAACTGCC/GGCAGTTGACGTCATGCTAGGC; test: microscale thermophoresis; conditions: Na+ 50 mM (NaOAc); 10 mM HEPES, 0.1% Tween, room temperature; 20 nM DNA
[7] = test system: DS-21 (dsDNA) (DNA, duplex) CCTTCACGCGAACGTAATCCT/AGGATTACGTTCGCGTGAAGG; test: MST competition, unlabelled DNA titrated; conditions: Na+ 50 mM (NaOAc); IC50 of competitor DNA, not of compound; 20 nM FAM-4WJ-22, 80 nM Pt-BIMA; 10 mM HEPES, 0.1% Tween-20
[8] = test system: 4WJ-FAM1 (DNA, junction) GCCTAGCATGATACTGCTACCG/CGGTAGCAGTACCGTTGGTGGC/GCCACCAACGGCGTCAACTGCC/GGCAGTTGACGTCATGCTAGGC; test: FRET, FAM emission; conditions: Na+ 50 mM (NaOAc); 10 mM HEPES; 5 µM DNA, 1 equivalent Pt-BIMA; FAM emission up about 3.5-fold
[9] = test system: 4WJ-22 (DNA, junction) GCCTAGCATGATACTGCTACCG/CGGTAGCAGTACCGTTGGTGGC/GCCACCAACGGCGTCAACTGCC/GGCAGTTGACGTCATGCTAGGC; test: MST competition, unlabelled DNA titrated; conditions: Na+ 50 mM (NaOAc); IC50 of competitor DNA, not of compound; 20 nM FAM-4WJ-22, 80 nM Pt-BIMA; 10 mM HEPES, 0.1% Tween-20
[10] = test system: FAM-labelled 3WJ-18 (DNA, junction) GTGGCGAGAGCGACGATC/GATCGTCGCAGAGTTGAC/GTCAACTCTTCTCGCCAC; test: microscale thermophoresis; conditions: Na+ 50 mM (NaOAc); 10 mM HEPES, 0.1% Tween, room temperature; error exceeds value
[11] = test system: 3WJ (DNA, junction) CGGAACGGCACTCG/CGAGTGCAGCGTGG/CCACGCTCGTTCCG; test: UV melting, 260 nm; conditions: Na+ (10 mM Na cacodylate, 50 mM NaOAc); 1 equivalent Pt-BIMA
[12] = test system: DS-21 (dsDNA) (DNA, duplex) CCTTCACGCGAACGTAATCCT/AGGATTACGTTCGCGTGAAGG; test: UV melting, 260 nm; conditions: Na+ (10 mM Na cacodylate, 50 mM NaOAc); 1 equivalent Pt-BIMA
[13] = test system: Y fork (DNA, junction) CGCACGTACGGAACGGCACTCGCTTGCTCG/CGAGCAAGCGAGTGCAGCGTGGATACATGC; test: UV melting, 260 nm; conditions: Na+ (10 mM Na cacodylate, 50 mM NaOAc); 1 equivalent Pt-BIMA
[14] = test system: 4WJ-22 (DNA, junction) GCCTAGCATGATACTGCTACCG/CGGTAGCAGTACCGTTGGTGGC/GCCACCAACGGCGTCAACTGCC/GGCAGTTGACGTCATGCTAGGC; test: PAGE gel shift; conditions: Mg2+ 10 mM (MgCl2); band widens, no distinct shift

[Pd+2].[Pd+2].c1ccc2c(c1)ncn2Cc1c2ccccc2c(Cn2cnc3ccccc32)c2ccccc12.c1ccc2c(c1)ncn2Cc1c2ccccc2c(Cn2cnc3ccccc32)c2ccccc12.c1ccc2c(c1)ncn2Cc1c2ccccc2c(Cn2cnc3ccccc32)c2ccccc12.c1ccc2c(c1)ncn2Cc1c2ccccc2c(Cn2cnc3ccccc32)c2ccccc12
binding [1]: yes
binding [2]: yes
binding [3]: yes

[Pt+2].[Pt+2].c1ccc2c(c1)ncn2Cc1c2ccccc2c(Cn2cnc3ccccc32)c2ccccc12.c1ccc2c(c1)ncn2Cc1c2ccccc2c(Cn2cnc3ccccc32)c2ccccc12.c1ccc2c(c1)ncn2Cc1c2ccccc2c(Cn2cnc3ccccc32)c2ccccc12.c1ccc2c(c1)ncn2Cc1c2ccccc2c(Cn2cnc3ccccc32)c2ccccc12
ΔTm [4]: 11.6 ± 0.6 °C
binding [5]: no
Kd [6]: 8.27 ± 1.11 x 10^-8 M
IC50 [7]: > 25 µM
binding [8]: yes
IC50 [9]: 2.88 ± 0.42 x 10^-8 M
binding [1]: yes
Kd [10]: 1.90 ± 2.27 × 10^-6 M
ΔTm [11]: 21.1 ± 0.1 °C
ΔTm [12]: 0.7 ± 0.9 °C
ΔTm [13]: 5.4 ± 1.1 °C
binding [2]: yes
binding [3]: yes
binding [14]: weak
